{"source": "patent US12109266B2", "about": "“Modulating gabarap to modulate immunogenic cell death” (Dana-Farber Cancer Institute, Inc., priority 2020, dated 2024)", "key": {"[1]": {"test_system": "5TGM1 MM cells", "test": "Cell surface exposure of CALR (flow cytometry)", "assay_type": "cell-based, murine", "conditions": "16 h", "experimental": "(§1) Multiple myeloma (MM) cells were seeded in 12-well plates (2×10^5 per well), treated with BTZ for 16 h at indicated concentrations, and then stained with Alexa Fluor647® anti-calreticulin antibody (ab196159, Abcam) and 7-AAD. Analysis of fluorescence intensity on 7-AAD negative cells was assessed using BD LRSFortessa™ X-20 flow cytometer.\nas §1, with “MM” for “Multiple myeloma (MM)”, “cells” for “cells was assessed”, “LRSFortessa” for “LRSFortessa™”"}, "[2]": {"test_system": "IFN response in 5TGM1 cells", "test": "Type-I IFN response in MM cells (qRT-PCR)", "assay_type": "cell-based, murine", "conditions": "5TGM1 Sting^KO; BTZ 7.5 nM", "experimental": "Total RNA from multiple myeloma cells was prepared with TRIzol™ (ThermoFisher Scientific) and RNA Clean and Concentrator™-5 kit (Zymo Research) following the product instructions. RNA integrity and quantity was assessed by NanoDrop Spectrophotometer (ThermoFisher Scientific). For analysis of mRNA expression, oligo-dT-primed cDNA was obtained using the High Capacity cDNA Reverse Transcription Kit (ThermoFisher Scientific), and used as template to quantify: human and murine IFNA1 (Hs03044218_g1, Mm03030145_gH), human and murine IFNB1 (Hs01077958_s1, Mm00439552_s1), human and murine CXCL9 (Hs00171065_ml, Mm00434946_ml), and human and murine GAPDH (Hs02786624_g1, Mm99999915_g1). Analysis was determined by RT-PCR using TaqMan®Fast Universal PCR Master Mix on a 7500 Fast Real-Time PCR System (ThermoFisher Scientific). Comparative RT-PCR was performed in triplicate. Relative expression was calculated using the comparative […] (Ct) method."}, "[3]": {"test_system": "U266 cells", "test": "Cytotoxicity assay (T cell lysis of MM cells)", "assay_type": "cell-based, human", "conditions": "T cells from BTZ co-culture, 24 h", "experimental": "After coculture of HLA-matched DCs and T cells from healthy donors with either untreated or BTZ-treated U266 cells for 5 days, T cells were negatively selected using the Pan T cell Isolation Kit (Miltenyi Biotec) and plated in round bottom 96-well plates with naïve U266 cells pre-stained with CFSE dye (ThermoFisher Scientific) at different target:effector (T:E) ratios for 24 h in the presence of IL-2 (#130-097-74, Miltenyi Biotec). Then cells were 7AAD-stained, and detection of viable CFSE-gated cells was performed using BD LRSFortessa X-20 cytometer."}, "[4]": {"test_system": "AMO1, H929 and KMS11 MM cells", "test": "Cell surface exposure of CALR (flow cytometry)", "assay_type": "cell-based, human", "experimental": "as §1\nas §1, with “MM” for “Multiple myeloma (MM)”, “cells” for “cells was assessed”, “LRSFortessa” for “LRSFortessa™”"}, "[5]": {"test_system": "naive T cells", "test": "Analysis of naive T cell proliferation", "assay_type": "cell-based, human", "conditions": "5 day co-culture with BTZ-treated AMO1 or NCI-H929 cells and DCs", "experimental": "DCs were generated from healthy donors PBMCs as described above (“Generation of Mo-DCs” section). Naïve T cells were negatively selected from CD14-PBMCs from the same donors using the Naive Pan T Cell Isolation Kit (Miltenyi Biotec) and frozen. When DCs were generated, either untreated or BTZ-treated multiple myeloma cells were co-cultured with DCs and naïve T cells labeled with CellTrace™ Violet Cell Proliferation Kit (ThermoFisher Scientific) for 5 days. Naïve T cells were also cultured in the absence of multiple myeloma cells and in the presence of phytohemagglutinin (PHA) (20 ug/ml) as positive control. Before analysis, cells were stained with: CD8-FITC (#344704), CD4-PerCP/Cyanine5.5 (#317428) (BioLegend); and LIVE/DEAD™ Fixable Aqua dead Cell Stain (#L34966) (ThermoFisher Scientific). Proliferating CD4 and CD8 T cell subsets were then analyzed using the FlowJo software (Becton, Dickinson & Company)."}, "[6]": {"test_system": "STC1", "test": "Western blot of STC1", "assay_type": "cell-based"}, "[7]": {"test_system": "AMO1, H929 and KMS11 MM cells", "test": "Phagocytosis assay of MM cells by monocyte-derived DCs", "assay_type": "cell-based, human", "experimental": "Mo-DCs were generated from CD14+ peripheral blood monocytes were positively selected using magnetic beads (Miltenyi Biotec) and cultured for 6 days in mo-DC differentiation medium containing GM-CSF and IL-4 (130-094-812; Miltenyi Biotec) to generate Mo-DCs. AMO1, KMS11 and H929 cells lines, as well as patient MM cells, were stained with CellTrace™ Far Red (ThermoFisher Scientific), cultured with or without BTZ (for 16 h), and then incubated in 48-well plates for 4 h at 1:1 ratio with CellTrace™ CFSE stained Mo-DCs. Cells were then collected, and phagocytosis analysis was performed by flow cytometry and confocal microscopy. Analagous phagocytosis experiments was performed using 5TGM1 murine MM and immature murine DC line JAWSII.\nCollected cells were analyzed using the BD LRSFortessa™ X-20 flow cytometer. Mo-DCs that engulfed MM cells were CFSE and FAR-RED double positive. Fold increase in percentage of double positive DCs after co-culture with BTZ treated vs untreated MM cells was compared.\nMo-DCs were generated from CD14+ peripheral blood monocytes from healthy donors, positively selected using magnetic beads (Miltenyi Biotec), cultured for 6 days in mo-DC differentiation medium containing GM-CSF and IL-4 (130-094-812; Miltenyi Biotec). AMO1 and NCI-H929 cells lines, as well as patient MM cells, were stained with CellTrace™ Far Red (ThermoFisher Scientific), cultured with or without BTZ for 16 h, and then incubated in 48-well plates for 4 h at 1:1 ratio with CellTrace™ CFSE stained Mo-DCs. Cells were then collected, and phagocytosis analysis was performed by flow cytometry and confocal microscopy. Analagous phagocytosis experiments were performed using 5TGM1 murine multiple myeloma and JAWSII cell line that was used as source of immature murine DCs.\nFlow cytometry-based assay: Collected cells were analyzed using the BD LRSFortessa X-20 flow cytometer. Mo-DCs that engulfed MM cells were CFSE and FAR-RED double positive. Fold increase in percentage of double positive DCs after co-culture with BTZ treated vs untreated MM cells was compared."}, "[8]": {"conditions": "KMS11 cells (monoallelic deletion of GABARAP)"}}, "note": "“Also recorded” adds a separate entry of the source.", "data": [{"compound": "CC(C)C[C@H](NC(=O)[C@H](Cc1ccccc1)NC(=O)c1cnccn1)B(O)O", "note": "[BTZ, bortezomib]", "values": [{"measurement": "CALR exposure on cell surface", "setting": "[1]; 5TGM1 Sting^KO, BTZ 7.5 nM", "result": "did not alter CALR exposure process"}, {"measurement": "CALR exposure on cell surface", "setting": "[1]; 5TGM1 WT, BTZ 1-10 nM", "result": "can induce hallmarks of ICD in human and murine MM cell lines; also recorded: dose-dependent increase of CTLR exposure"}, {"measurement": "IFN response (Ifna1, Ifnb1 qRT-PCR)", "setting": "[2]", "result": "abrogation of IFN response after BTZ treatment"}, {"measurement": "lysis of MM cells by T cells isolated after co-culture", "setting": "[3]", "result": "able to efficiently induce lysis of multiple myeloma cells"}, {"measurement": "CALR exposure on cell surface", "setting": "[4]; AMO1, H929 WT, BTZ 1-10 nM, 16 h, viable (7-AAD negative) cells", "result": "triggers calreticulin (CALR; also referred to as CRT) exposure by cancer cells; also recorded: can induce hallmarks of ICD in human and murine MM cell lines; also recorded: dose-dependent increase of CTLR exposure"}, {"measurement": "CALR exposure on cell surface", "setting": "[4]; AMO1 STING^KO, BTZ 5 nM, 16 h", "result": "did not alter CALR exposure process"}, {"measurement": "CALR exposure on cell surface", "setting": "[4]; AMO1 and H929 GABARAP^KO clones", "result": "did not increase CRT exposure; also recorded: GABARAP^KO blocks CALR exposure upon BTZ"}, {"measurement": "CALR exposure on cell surface", "setting": "[4]; AMO1 and H929 GABARAP^KO clones, listed as Bortezomib", "result": "did not induce CALR exposure in MM cells due to GABARAP deletion"}, {"measurement": "CALR exposure on cell surface", "setting": "[4]; [8]", "result": "did not lead to an increase of CRT exposure"}, {"measurement": "proliferation of CD4+ and CD8+ naive T cells", "setting": "[5]", "result": "increased proliferation of both CD4+ and CD8+ naïve T cells; also recorded: promotes proliferation of CD4+ and CD8+ naïve T cells"}, {"measurement": "STC1 protein levels", "setting": "[6]; GABARAP^KO cells after BTZ", "result": "intracellular levels of STC1 are even higher after BTZ treatment"}, {"measurement": "STC1 protein levels", "setting": "[6]; WT cells (5TGM1, AMO1) after BTZ", "result": "STC1 protein levels decrease in WT cells after BTZ treatment"}, {"measurement": "phagocytosis of BTZ-treated MM cells by DCs", "setting": "[7]; AMO1, NCI-H929 WT, BTZ 16 h, then 4 h co-culture", "result": "induces functional maturation of dendritic cells (DCs) in vitro; also recorded: enhanced uptake of BTZ-treated MM cells; also recorded: engulfed by monocyte-derived DCs after 4 h of co-culture"}, {"measurement": "phagocytosis of BTZ-treated MM cells by DCs", "setting": "[7]; AMO1 GABARAP^KO", "result": "did not stimulate phagocytosis by DCs; also recorded: GABARAP^KO abrogates phagocytosis by DCs"}, {"measurement": "induction of ICD", "setting": "[7]; GABARAP^KO in 2 ICD-sensitive cell lines (AMO1, H929)", "result": "abrogated the induction of ICD by BTZ"}, {"measurement": "induction of ICD", "setting": "[7]; KMS11 / GABARAP-null cells", "result": "resistant to induction of ICD by BTZ"}, {"measurement": "induction of ICD", "setting": "[7]; KMS11 / GABARAP-null cells, listed as Bortezomib", "result": "does not induce ICD in GABARAP-null cells"}, {"measurement": "functional maturation of co-cultured DCs (phagocytosis assay)", "setting": "[7]; [8]", "result": "did not lead to an increase of CRT exposure or functional maturation of co-cultured DCs"}]}]}
